We go through one compound from ChEMBL document CHEMBL4393731, “Discovery of fused bicyclic derivatives of 1H-pyrrolo[1,2-c]imidazol-1-one as VDR signaling regulators” (Bioorg Med Chem, 2019).

For data set [1], the target named is T1, Vitamin D3 receptor (Homo sapiens) (UniProt P11473).
T1 sequence (whole entry): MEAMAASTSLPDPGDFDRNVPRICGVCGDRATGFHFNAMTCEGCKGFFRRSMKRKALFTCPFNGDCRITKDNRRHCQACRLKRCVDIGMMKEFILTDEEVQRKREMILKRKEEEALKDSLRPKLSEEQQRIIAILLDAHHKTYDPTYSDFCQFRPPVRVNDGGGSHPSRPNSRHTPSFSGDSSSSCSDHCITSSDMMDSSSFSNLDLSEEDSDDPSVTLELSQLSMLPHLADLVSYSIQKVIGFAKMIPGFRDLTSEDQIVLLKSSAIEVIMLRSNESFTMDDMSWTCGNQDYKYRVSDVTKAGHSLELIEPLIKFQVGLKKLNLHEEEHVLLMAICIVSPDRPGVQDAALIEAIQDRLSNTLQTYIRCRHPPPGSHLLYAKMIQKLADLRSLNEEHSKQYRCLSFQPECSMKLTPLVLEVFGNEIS
The data set is described as follows: Modulation of VDR in human HeLa cells assessed as increase in calcitriol-induced upregulation of LC3-2 expression at 10 uM measured after 4 hrs by Western blot analysis. It counts as cell-based. For orientation: A western blot detects proteins with antibodies after separation by electrophoresis.

Data set [2] has as its target T1, Vitamin D3 receptor (Homo sapiens). The data set is described as follows: Modulation of VDR in human HeLa cells assessed as increase in calcitriol-induced LC3-2 to LC3-1 ratio at 10 uM measured after 4 hrs by Western blot analysis. It counts as cell-based.
Data set [3] deals with HeLa. The data set is described as follows: Induction of autophagy in human HeLa cells transformed with VDR shRNA assessed as increase in LC3-2 to LC3-1 ratio at 10 uM measured after 4 hrs in presence of calcitriol by Western blot analysis. It counts as functional, cell-based.
The target in data set [4] is T1, Vitamin D3 receptor (Homo sapiens). Briefly: Activation of VDR (unknown origin) expressed in human HeLa cells measured after 24 hrs by luciferase reporter assay. The class given is cell-based. In general terms: Reporter assays use an easily measured gene product as a stand-in for the process of interest.
Data set [5] relates to HeLa. The data set is described as follows: Cytotoxicity against human HeLa cells measured after 24 hrs by MTT assay. It counts as cell-based.
In data set [6] the target is T1, Vitamin D3 receptor (Homo sapiens). Briefly: Modulation of VDR in human HeLa cells assessed as down regulation of p65 expression at 10 uM measured after 24 hrs in the presence of calcitriol by Western blot analysis. The class given is cell-based.
Data set [7] concerns HeLa. The data set is described as follows: Induction of autophagy in human HeLa cells transformed with VDR shRNA assessed as effect on p62 expression at 10 uM measured after 4 hrs in presence of calcitriol by Western blot analysis. The class given is functional, cell-based.
For data set [8], the target named is Genome polyprotein (dengue virus type 2) (UniProt P29990). The data set is described as follows: Inhibition of Dengue virus 2 NS2B-NS3 protease.
Data set [9] deals with T1, Vitamin D3 receptor (Homo sapiens). The data set is described as follows: Modulation of VDR in human HeLa cells assessed as increase in calcitriol-induced upregulation of p62 expression at 10 uM measured after 4 hrs by Western blot analysis. It counts as cell-based.
Data set [10] shares this target. Briefly: Activation of VDR in human HeLa cells assessed as up regulation of phosphorylated p65 expression at 10 uM measured after 24 hrs in the presence of calcitriol by Western blot analysis. The class given is cell-based.
The subject of data set [11] is HeLa. Briefly: Induction of autophagy in human HeLa cells transformed with VDR shRNA assessed as effect on p62 expression at 10 uM measured after 4 hrs by Western blot analysis. It counts as functional, cell-based.
The target in data set [12] is T1, Vitamin D3 receptor (Homo sapiens). The data set is described as follows: Modulation of VDR (unknown origin) expressed in human HeLa cells assessed as increase in calcitriol-induced response measured after 24 hrs by luciferase reporter assay. It counts as cell-based.
Data set [13] relates to HeLa. The data set is described as follows: Induction of autophagy in human HeLa cells transformed with VDR shRNA assessed as up regulation of LC3-1 expression at 10 uM measured after 4 hrs in presence of calcitriol by Western blot analysis. The class given is functional, cell-based.
Data set [14] concerns the target T1, Vitamin D3 receptor (Homo sapiens). Briefly: Modulation of VDR (unknown origin) expressed in human HeLa cells assessed as increase in calcitriol-induced response at 10 uM measured after 24 hrs by luciferase reporter assay relative to control. The class given is cell-based.
Data set [15] concerns HeLa. Briefly: Induction of autophagy in human HeLa cells transformed with VDR shRNA assessed as up regulation of LC3-2 expression at 10 uM measured after 4 hrs in presence of calcitriol by western blot analysis. It counts as functional, cell-based.
In data set [16] the test system is HeLa. The data set is described as follows: Induction of autophagy in human HeLa cells assessed as calcitriol-induced up regulation of LC3-1 expression at 10 uM measured after 4 hrs by Western blot analysis. The class given is functional, cell-based.
Data set [17] deals with HeLa. Briefly: Up regulation of VDR expression in human HeLa cells at 10 uM measured after 4 hrs in presence of VDR shRNA by Western blot analysis. The class given is functional, cell-based.

Active and inactive are the calls of the source. No cut-off for these calls is given here.

Take `CSCC[C@H](N)C(=O)Oc1ccc([C@H]2N(c3ccc([N+](=O)[O-])cc3)C(=O)[C@@H]3CCCN32)cc1.Cl`: the result in data set [1], in data set [2], in data set [3], in data set [6], in data set [9] and in [10] was Active. For the same compound, the result in [13], in data set [15], in data set [16] and in data set [17] was Active. Further, the result in data set [4], in data set [7] and in data set [11] was inactive. For the same compound, in data set [5], the CC10 is greater than 10 µM. For the same compound, the “Inhibition (active/not active)” value in [8] is “inactive”. The Activity entry in data set [12] was “Dose-dependent effect”. Moreover, the fold change (FC) in [14] was 2.5 to 3.
